This is an account of results in PMC6315057, “Industrial scale high-throughput screening delivers multiple fast acting macrofilaricides” (Nature Communications, 2019).

The subject of series [1] is Wolbachia within Brugia malayi Mf. Kind of series: Anti-Wolbachia time-kill analysis (timed wash-out) in B. malayi Mf. It counts as cell-based. Particulars: 10x EC50; maximal reduction 70–90% normalised to vehicle control. An excerpt:
To compare the dynamics of the in vitro phenotype of our hits with existing anti-Wolbachia therapies, we employed a timed wash-out strategy (Fig. 5) at 10x EC50 to establish the anti-Wolbachia time-kill kinetics of the selected chemotypes (1A–5A), using five replicates per compound. […].
Fig. 5 Anti-Wolbachia time-kill analysis. Representatives from the top five clusters (1A–5A), as well as established anti-Wolbachia antibacterials (doxycycline (white), minocycline (grey), rifampicin (black)) were assessed after exposure for 1 day and 2 days before washing and further incubation until the standard 6-day read out. wsp:gst ratio was normalised to the DMSO vehicle control resulting in a read out of mean percentage reduction from control. Doxycycline day 6 treatment represents the result for exposure to doxycycline at 5 µM for a full 6 days (no wash). The box extends from the 25th to the 75th percentile with the median presented by the central line. The whiskers are set at the minimum and maximum therefore indicating the range from five replicates. The cluster number is indicated by colour: cluster 1 (dark blue), 2 (magenta), 3 (teal), 4 (dark gold), and 5 (light blue)
(§1) The Mf were obtained by peritoneal lavage, using a catheter, of gerbils (Meriones unguiculatus) harbouring a patent infection of B. malayi. Mf were purified using a PD-10 desalting column (Fisher), centrifuged (311 RCF for 5 min at room temperature) before the addition of 8000 Mf/well of a 96-well plate (100 µl per well) in complete media consisting of RPMI supplemented with 10% FBS, 1% penicillin streptomycin and 1% amphotericin B. Compounds were diluted in complete media and 100 µl was added per well, providing a final concentration of 5 µM, with five replicates per compound. Each plate contained doxycycline (5 µM) and DMSO controls. After incubation at 37 °C for 6 days in 5% CO2, visual assessment of Mf motility was performed and scored from 0 to 4 per well (where 0 = no movement and 4 = highly motile). DNA extraction per sample was performed using the QIAmp DNA Mini Kit before quantitative PCR was performed to obtain the ratio of Wolbachia Surface Protein gene copy number (wsp) to Glutathione S-Transferase gene copy number (gst)[36]. The DNA was amplified using the primers as indicated in Supplementary Table 6.
(§2) The wsp:gst ratio data allowed for normalisation of the Wolbachia level to the Mf biomass for each well. The change in wsp:gst for each compound compared to the DMSO control was calculated before normalisation to the onboard doxycycline control to allow for inter-assay comparison.

The nature of series [2]: Aqueous solubility in pH 7.4 PBS. Particulars: for solubility: PBS pH 7.4, aqueous buffer, pH 7.4 PBS, read-out: Aqueous solubility in pH7.4 PBS. It is filed as physicochemical. An excerpt: (§3) The DMPK data used for triaging compounds, including LogD7.4, aqueous solubility, plasma protein binding, microsome and hepatocyte clearance measurements, were generated using the standard AstraZeneca UK high-throughput platform[37],[38].

Series [3] deals with Wolbachia in C6/36 (wAlbB) cells. Briefly: Secondary concentration response HTS (IC50) anti-Wolbachia screen in C6/36 (wAlbB) insect cells. It is filed as cell-based, Wolbachia pipientis wAlbB (in Aedes albopictus C6/36 cells). The settings on record: Wolbachia, 168 h, 7-day incubation, 10-point concentration range. The protocol: Initially C6/36 (wAlbB) cells (insect cells stably infected with the Wolbachia target) from a single cryopreserved batch were recovered over 7 days prior to plating into 384-well assay ready plates (containing the test compounds), using a semi-automated process allowing for daily batches of ~150 plates, set up 4 days per week for 8 weeks. After a 7-day incubation period with the test compounds the plates were moved into the second fully automated stage (using the Agilent Technologies BioCel system) involving formaldehyde fixation, DNA staining of the insect cell nuclei (Hoechst) for toxicity analysis and antibody staining specific to the intracellular Wolbachia (wBmPAL primary antibody and far-red secondary antibody). In the final stage the fixed and stained plates from stage 2 were processed through automated data acquisition (High Res Biosolutions system, incorporating EnVision™ and acumen® plate readers). This industry standardised assay was then used to screen AstraZeneca’s full library of 1.3 million compounds within 10 weeks. In total this HTS included 30 × 3 week assays covering 3835 × 384-well plates. This primary HTS generated 20,255 hits defined as >80% reduction in Wolbachia with <60% toxicity to the host insect cell (eliminating false positives). This represents an overall hit rate of 1.56%. These compounds are depicted in chemical space in Fig. 2 (black points)[21].
The mosquito (Aedes albopictus) derived cell line C6/36 (ATCC® CRL 1660), stably infected with Wolbachia pipientis wAlbB (C6/36(wAlbB)), was maintained in Leibovitz L15 medium containing 2 mM L-glutamine, 1% nonessential amino acids, 2% tryptose phosphate broth and 20% heat-inactivated foetal bovine serum (FBS) at 26 °C[18]. This screen exclusively used cells from the large-scale cryopreserved batch produced as part of this campaign by culturing the cells at scale before cryopreservation (90% FBS and 10% DMSO). This produced a cell bank of 190 × 1 ml cryovials containing 3 × 10^7 cells per vial.
(§4) On day 0, a single cryovial was recovered and the cells washed before being transferred to a T225 cm^2 flask. After a 7-day recovery Wolbachia infection level (quality control (QC)) was checked by SYTO®11 DNA staining of both the host cell nuclei and intracellular Wolbachia. The end-point read out from the Operetta® high content imaging system (Perkin Elmer) was the percentage of cells infected with Wolbachia. This was obtained from cytoplasm texture analysis by the associated Harmony® software. Cells with a >50% of the population infected with Wolbachia were classed as having a good Wolbachia level and therefore used for screening through addition of 2000 cells per well into assay ready 384-well plates containing the test compounds. […] Each plate included on-board controls; vehicle/DMSO (total/maximum Wolbachia signal) or doxycycline 5 µM (null/minimum Wolbachia signal), resulting in single shot screening of 352 compounds per plate for the primary screen. […] QC plates were also created including full columns of the following controls; DMSO (total/max), 5 μM doxycycline (null/min), as well as 50 nM doxycycline (reference/medium Wolbachia signal). Daily batches contained ~150 compound plates in addition to the QC plates. Each compound plate was foil sealed before incubation for 7 days at 26 °C, 95% humidity and atmospheric air.
After 7 days of drug incubation, the plates were loaded into the fully automated BioCel system which performed the following additions; fixation and DNA staining (1.8% formaldehyde + 0.6 µg/ml Hoechst 33342, 20 min), permeabilisation (80 μl of PBS + 0.25% Triton-X 100, 30 min), blocking (PBS + 6% BSA, 40 min), overnight incubation in the Wolbachia-specific anti-wBmPAL primary antibody[34] […]

A short description of series [4]: Human plasma protein binding. It is filed as in vitro ADME. The settings on record: plasma.
From the text: as §3

In the next series the test system is THP-1 cells. Kind of series: Mammalian cell viability counter-screen (CellTiter-Blue). It is filed as cell-based, human. Particulars: Homo sapiens, 48 h, read-out: HTS IC50 mammalian toxicity. The protocol:
The human monocytic THP-1 cell line (ATCC® TIB-202) used for mammalian cytotoxicity evaluation was routinely cultured in roller bottles. Growth media consisted of RPMI 1640 supplemented with 10% FBS and 2 mM L-glutamine. Cells were maintained at 37 °C with 95% humidity in 5% CO2 in a shaking incubator.
All compounds selected for secondary IC50 screen were tested in parallel for mammalian cell viability using the CellTiter-Blue® Cell Viability Assay. THP1 cells were removed from culture and plated at 1 × 10^4 cells/well (40 µl) into 384-well assay ready plates and incubated at 37 °C, 5% CO2 for 48 h at 95% humidity. After the addition of CellTiter-Blue Viability reagent (8 µl of a 1:6 dilution) the assay plates were incubated for a further 2 h before fluorescence detected using a PerkinElmer EnVision™ plate reader.
On the technique in general: The purpose of a counterscreen is to sort out artefacts and off-target activity.

The nature of another series: LogD7.4. Particulars: pH 7.4. It is filed as physicochemical.
From the text: as §3

The nature of a further series: Rat hepatocyte clearance. It counts as in vitro ADME.
From the text: as §3

The nature of series [5]: Human microsome clearance. Particulars: for microsomal CLint: human, human microsomes. It is filed as in vitro ADME.
From the text: as §3

Series [6] has as its system Wolbachia within Brugia malayi Mf. Kind of series: B. malayi microfilarial (Mf) in vitro anti-Wolbachia assay (wsp:gst qPCR). It counts as cell-based. The settings on record: Brugia malayi, 144 h; B. malayi Mf, 6 days; read-out: Mf EC50. The protocol:
as §1, with “Compounds were diluted in complete media and 100 µl was added per well, providing a final concentration of 5 µM, with five replicates per compound.” left out
as §2
In general terms: Real-time PCR tracks product formation cycle by cycle.

For series [7], the system named is Wolbachia in C6/36 (wAlbB) cells. Kind of series: Confirmatory re-assessment in the insect cell screen (cell assay EC50). It counts as cell-based, Wolbachia pipientis wAlbB (in Aedes albopictus C6/36 cells). The settings on record: Wolbachia, C6/36; insect cell screen, re-sourced or re-synthesised samples.
From the text: To further validate the hit molecules from these 9 clusters, samples were sourced either from the AstraZeneca compound inventory or through re-synthesis. All 18 samples were characterised by nuclear magnetic resonance (NMR) and mass spectroscopy to confirm their chemical structures and by HPLC/LCMS to establish their purity (Supplementary Table 5 and Supplementary Data 1). These samples were also subject to confirmatory re-assessment in both the insect cell screen and Mf assays for anti-Wolbachia potency alongside confirmation of DMPK properties (LogD7.4, aqueous solubility in pH 7.4 PBS, human microsomal turnover, rat hepatocyte turnover and human plasma protein binding) (Fig. 4, Supplementary Figure 1 and Supplementary Table 4).
as §4

In brackets after ≈: the same amount, converted by molar mass.

With `CO[C@H]1/C=C/O[C@@]2(C)Oc3c(C)c(O)c4c(O)c(c(/C=N/N5CCN(C)CC5)c(O)c4c3C2=O)NC(=O)/C(C)=C\C=C\[C@H](C)[C@H](O)[C@@H](C)[C@@H](O)[C@@H](C)[C@H](OC(C)=O)[C@@H]1C` [rifampicin, reference compound], the “Exposure time to achieve a maximal Wolbachia reduction” value in series [1] was > 2 days.

As for `CN(C)c1ccc(O)c2c1C[C@H]1C[C@H]3[C@H](N(C)C)C(O)=C(C(N)=O)C(=O)[C@@]3(O)C(O)=C1C2=O` [minocycline, reference compound], the “Exposure time to achieve a maximal Wolbachia reduction” value in series [1] is reported as > 2 days.

Turning to `O=C(Cc1cccc(F)c1)Nc1[nH]ncc1-c1ccccc1` [2B, 2-(3-fluorophenyl)-N-(4-phenyl-1H-pyrazol-5-yl)acetamide], the solubility – broadly, the dissolved amount per volume that the medium holds – in series [2] was determined as 172 µM (≈ 50.8 µg/mL). The values for the IC50 (in [3]; with THP-1 cells) were 4.37 µM and > 30.6 µM, respectively. Besides, the unbound share (fraction unbound) (commonly free concentration divided by total concentration) in series [4] was 0.12. For the same molecule, in the series “LogD7.4”, the logD (as a rule, the decadic logarithm of the distribution of all forms, ionised or not, between an organic phase and buffer at a given pH) turned out to be 2.5. In addition, in “Rat hepatocyte clearance”, the “Rat hepatocytes CLint” value was found to be 39.5 µl/min/1x106 cells. For the same molecule, the microsomal CLint (in general, the rate of metabolic loss divided by the concentration) in series [5] worked out at 8.5 µL/min/mg. The concentration giving a half-maximal response (EC50) (in general, the midpoint of the concentration-response curve) is > 5 µM in [6] and 11.3 µM in series [7].

As to `Cc1nccc(N2CCC(C(=O)N3CCCN(S(=O)(=O)c4ccc(Br)cc4)CC3)CC2)n1` [1B, (4-((4-bromophenyl)sulfonyl)-1,4-diazepan-1-yl)(1-(2-methylpyrimidin-4-yl)piperidin-4-yl)methanone], the solubility in series [2] came to 217 µM (≈ 113 µg/mL). In addition, the results for the IC50 (in series [3]; in the series with THP-1 cells) were 0.111 µM and > 30.6 µM, respectively. In series [4], this molecule gave an unbound share (fraction unbound) of 0.23. Also, in “LogD7.4”, the pH-dependent lipophilicity (logD) was 2.7. Besides, the “Rat hepatocytes CLint” value in “Rat hepatocyte clearance” is 24.8 µl/min/1x106 cells. Moreover, the microsomal CLint in [5] is > 300 µL/min/mg. Further, the values for the concentration for a half-maximal effect (EC50) in [6] and in [7] were ~0.296 µM and 0.269 µM, respectively.

For the molecule `COc1ccc(C(=O)Nc2ccc(CNC(=O)c3ccnn3C)cc2C)cn1` [7A, 6-methoxy-N-(2-methyl-4-((1-methyl-1H-pyrazole-5-carboxamido)methyl)phenyl)nicotinamide], the “Solubility (in words)” value in series [2] was “good”. Moreover, the solubility in [2] was 100 µM (≈ 37.9 µg/mL). Further, the results for the half-maximal inhibitory concentration (IC50) (in series [3]; in the series with THP-1 cells) were 1.27 µM and 23.2 µM, respectively. The molecule also showed a fraction unbound in series [4] of 0.003. The logD in the series “LogD7.4” was 2. Besides, the “Rat hepatocytes CLint” value in the series “Rat hepatocyte clearance” is < 1 µl/min/1x106 cells. The intrinsic clearance (microsomal CLint) in [5] is < 3 µL/min/mg. In [5] (in vitro, system not given), the “Metabolic stability (in words)” value is given as “high”. For the same molecule, the EC50 in series [6] was ~1.16 µM; in series [7], 1.14 µM.

As to `CN(CC1CCCC(=O)N1)c1cc(OCc2ccccc2)nc(-c2nccn2C)n1` (stereo not shown) [3B, 6-(((6-(benzyloxy)-2-(1-methyl-1H-imidazol-2-yl)pyrimidin-4-yl)(methyl)amino)methyl)piperidin-2-one], in series [2], the solubility was > 1000 µM. Further, the concentration for half-maximal inhibition (IC50) – broadly, the concentration needed to halve the response being measured – in series [3] was 0.511 µM; in the series on THP-1 cells it was > 30.6 µM. The unbound share (fraction unbound) in series [4] was 0.2. In the series “LogD7.4”, this molecule yielded a log distribution coefficient (logD) of 2.5. In the series “Rat hepatocyte clearance”, the “Rat hepatocytes CLint” value is recorded as 218.6 µl/min/1x106 cells. This molecule also returned an intrinsic metabolic clearance (microsomal CLint) in series [5] of 35.5 µL/min/mg. The EC50 in [6] is ~0.223 µM; in series [7] it was 0.645 µM.

Turning to `CN(Cc1cccc(Br)c1)S(=O)(=O)c1ccc2c(c1)C(=O)NCC2` [8B, N-(3-bromobenzyl)-N-methyl-1-oxo-1,2,3,4-tetrahydroisoquinoline-7-sulfonamide], the solubility in series [2] amounted to 6 µM (≈ 2.46 µg/mL). In addition, the concentration for half-maximal inhibition (IC50) was 0.535 µM in series [3] and > 30.6 µM with THP-1 cells. The same molecule had a fraction unbound in series [4] of 0.034. In the series “LogD7.4”, the logD was 3.1. Also, in the series “Rat hepatocyte clearance”, the “Rat hepatocytes CLint” value is recorded as > 300 µl/min/1x106 cells. Besides, the intrinsic clearance (microsomal CLint) in series [5] was > 300 µL/min/mg. Moreover, the EC50 in series [6] is > 5 µM; in series [7] it was 0.873 µM.
